Experimental findings from ChEMBL document CHEMBL1201862, “PubChem BioAssay data set” (2004) are described below.

The source made the active and inactive calls.

For orientation: AC50 means the concentration at which the activity in the assay is half-maximal.

Test [1] concerns the target Potassium channel subfamily K member 9 (Homo sapiens, UniProt Q9NPC2). Kind of test: KCNK9 flux blockade, concentration-response – cell-based, FluxOR thallium flux, selectivity assay for TASK1 inhibitor project, SAR follow-up (AID 652211).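 Also: potency is for inhibitors of the channel.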 The class given is functional.
Test [2] deals with Potassium channel subfamily K member 3 (Homo sapiens, UniProt O14649). As to the kind of experiment: inhibition of human KCNK3 channel flux – CHO cells, FluxOR thallium flux, SAR follow-up (AID 652212). The class given is functional.
A further test deals with A549. As to the kind of experiment: viability loss in A549 cells – cell-based, plate reader, cherry-pick samples, cytotoxicity control, dose response (AID 687028). The class given is functional. The note with it: Homo sapiens.
For test [3], the target named is T1, Corticotropin-releasing factor receptor 2/Corticotropin-releasing factor-binding protein (Homo sapiens, UniProt P24387+Q13324).
T1 sequence (Q13324 whole entry): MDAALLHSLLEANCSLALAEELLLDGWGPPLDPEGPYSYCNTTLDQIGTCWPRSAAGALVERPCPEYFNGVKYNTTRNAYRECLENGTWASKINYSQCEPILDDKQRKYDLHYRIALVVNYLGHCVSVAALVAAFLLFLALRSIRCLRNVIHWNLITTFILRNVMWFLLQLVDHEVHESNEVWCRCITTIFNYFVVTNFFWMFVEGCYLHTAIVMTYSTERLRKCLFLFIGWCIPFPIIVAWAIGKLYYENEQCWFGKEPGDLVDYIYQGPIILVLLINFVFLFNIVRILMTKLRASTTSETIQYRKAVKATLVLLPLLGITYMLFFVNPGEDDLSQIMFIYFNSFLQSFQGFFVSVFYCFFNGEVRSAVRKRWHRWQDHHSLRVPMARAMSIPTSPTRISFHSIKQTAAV
T1 sequence (P24387 whole entry): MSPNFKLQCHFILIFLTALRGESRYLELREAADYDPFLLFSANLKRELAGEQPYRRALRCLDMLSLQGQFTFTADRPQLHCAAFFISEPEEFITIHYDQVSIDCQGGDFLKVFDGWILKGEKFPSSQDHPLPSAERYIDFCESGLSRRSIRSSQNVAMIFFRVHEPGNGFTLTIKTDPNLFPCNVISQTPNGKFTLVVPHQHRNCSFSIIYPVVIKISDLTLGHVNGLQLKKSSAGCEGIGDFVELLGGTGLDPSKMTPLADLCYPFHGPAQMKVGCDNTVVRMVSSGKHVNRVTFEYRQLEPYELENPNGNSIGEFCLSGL
Kind of test: Dose Response confirmation of uHTS hits for small molecule antagonists of the CRF-binding protein and CRF-R2 receptor complex. The class given is functional. The note with it: read-out: IC50_Mean.

In test [4] the target is T1, Corticotropin-releasing factor receptor 2/Corticotropin-releasing factor-binding protein. Kind of test: activators of CRF receptor 2 with binding protein – uHTS hits, confirmation (AID 602473). The class given is functional. The note with it: read-out: EC50_Mean.
Test [5] is described as follows: blockers of CRF-binding protein–CRF-R2 complex – cell-based, uHTS hits, 384-well, dose response (AID 651639). The class given is functional, Homo sapiens. The settings on record: read-out: IC50_Mean.
Test [6] is described as follows: human cervical cancer cell viability loss – 24 h, plate reader, dry powder, cytotoxicity control, dose response (AID 686928). The class given is functional, cell-based. The note with it: HeLa.
Test [7] concerns the target T2, Polyadenylate-binding protein 1 (Homo sapiens, UniProt P11940). As to the kind of experiment: MLLE binding blockers, Cy5 peptide tracer – biochemical, fluorescence polarization, Cy5-PAM2 peptide, secondary, miRNA deadenylation inhibitor project, dose response (AID 602260). The class given is functional. The settings on record: read-out: IC50_Mean. (In general: Polarisation of emitted light reports the rotation of a fluorescent probe.)

Test [8] addresses T2, Polyadenylate-binding protein 1. Kind of test: MLLE domain peptide-binding blockers, IC50 – biochemical, fluorescence polarization, FITC-PAM2 peptide, dose response (AID 602259). The class given is functional. The note with it: read-out: IC50_Mean.
Test [9] concerns the target T3, Sentrin-specific protease 8 (Homo sapiens, UniProt Q96LD8).
T3 sequence (Q96LD8 whole entry): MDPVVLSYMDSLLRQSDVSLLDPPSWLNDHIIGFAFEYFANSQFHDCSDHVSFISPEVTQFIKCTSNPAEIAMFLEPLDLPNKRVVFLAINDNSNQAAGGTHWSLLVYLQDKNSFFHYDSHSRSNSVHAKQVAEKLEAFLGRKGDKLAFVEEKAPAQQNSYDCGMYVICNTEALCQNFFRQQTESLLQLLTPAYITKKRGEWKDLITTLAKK
The class given is functional.

Test [10] has as its target T3, Sentrin-specific protease 8. The class given is functional. This is another data set of the same source.
Another test addresses T4, Caspase-3 (Homo sapiens, UniProt P42574).
T4 sequence (P42574 whole entry): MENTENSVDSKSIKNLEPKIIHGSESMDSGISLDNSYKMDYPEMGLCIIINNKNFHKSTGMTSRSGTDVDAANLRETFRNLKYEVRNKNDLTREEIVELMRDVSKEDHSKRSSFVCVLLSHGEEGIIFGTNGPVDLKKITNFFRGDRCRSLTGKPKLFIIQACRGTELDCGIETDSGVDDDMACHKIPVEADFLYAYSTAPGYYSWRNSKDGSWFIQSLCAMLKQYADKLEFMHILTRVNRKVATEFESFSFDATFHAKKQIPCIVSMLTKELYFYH
As to the kind of experiment: Dose-response confirmation of uHTS inhibitor hits of Sentrin-Specific Protease 8 in a Caspase-3 Fluorescence assay. The class given is functional.

Test [11] can be described thus: Trypanosoma cruzi growth suppression in host cells – NIH3T3 host cells, beta-gal luminescence, confirmation (AID 2044).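 Also: intracellular parasites grown in NIH/3T3 mouse fibroblasts as host cells; luminescent beta-galactosidase reporter signal from transgenic T. cruzi replicating inside host cells; inhibitors lower the luminescence signal.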 The class given is functional, cell-based.
The nature of test [12]: NIH3T3 cell viability loss – ATP luminescence, mouse fibroblasts, counter-screen, dose response (AID 2010).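 Also: cells exposed to compound for about 90 hours before reading.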 The class given is functional, cell-based. A general note: The purpose of a counterscreen is to sort out artefacts and off-target activity.
Test [13] in a line: Counterscreen for […] of the human trace amine associated receptor 1 (TAAR1): Fluorescence-based cell-based high throughput dose response assay to identify nonselective Ga16 agonists. The class given is functional.
The target of test [14] is T5, Trace amine-associated receptor 1 (Homo sapiens, UniProt Q96RJ0).
T5 sequence (Q96RJ0 whole entry): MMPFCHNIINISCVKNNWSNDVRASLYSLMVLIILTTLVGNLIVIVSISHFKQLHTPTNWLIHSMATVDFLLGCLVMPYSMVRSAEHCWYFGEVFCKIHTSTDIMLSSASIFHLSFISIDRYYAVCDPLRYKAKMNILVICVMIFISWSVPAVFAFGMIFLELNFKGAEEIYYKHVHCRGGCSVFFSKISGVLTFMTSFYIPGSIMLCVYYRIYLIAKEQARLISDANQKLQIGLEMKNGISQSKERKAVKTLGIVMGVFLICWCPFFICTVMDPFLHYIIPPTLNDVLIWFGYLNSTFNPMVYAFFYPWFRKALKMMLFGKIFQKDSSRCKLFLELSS
As to the kind of experiment: Fluorescence-based cell-based high throughput dose response assay to identify antagonists of the human trace amine associated receptor 1 (TAAR1). The class given is functional.

A short description of test [15]: Counterscreen for antagonists of the human trace amine associated receptor 1 (hTAAR1): Fluorescence-based cell-based high throughput dose response assay to identify nonselective Ga16 antagonists. The class given is functional.
Test [16] has as its target T5, Trace amine-associated receptor 1. Kind of test: Counterscreen for antagonists of the human trace amine associated receptor 1 (hTAAR1): Fluorescence-based cell-based high throughput dose response assay to identify TAAR1 Agonists. The class given is functional.
Test [17] is described as follows: general mammalian cell viability loss – inhibitor set, cherry-pick, set 2, cytotoxicity control for miR-122 modulator project, dose response (AID 720697). The class given is functional, cell-based.

T2 sequence (P11940 whole entry): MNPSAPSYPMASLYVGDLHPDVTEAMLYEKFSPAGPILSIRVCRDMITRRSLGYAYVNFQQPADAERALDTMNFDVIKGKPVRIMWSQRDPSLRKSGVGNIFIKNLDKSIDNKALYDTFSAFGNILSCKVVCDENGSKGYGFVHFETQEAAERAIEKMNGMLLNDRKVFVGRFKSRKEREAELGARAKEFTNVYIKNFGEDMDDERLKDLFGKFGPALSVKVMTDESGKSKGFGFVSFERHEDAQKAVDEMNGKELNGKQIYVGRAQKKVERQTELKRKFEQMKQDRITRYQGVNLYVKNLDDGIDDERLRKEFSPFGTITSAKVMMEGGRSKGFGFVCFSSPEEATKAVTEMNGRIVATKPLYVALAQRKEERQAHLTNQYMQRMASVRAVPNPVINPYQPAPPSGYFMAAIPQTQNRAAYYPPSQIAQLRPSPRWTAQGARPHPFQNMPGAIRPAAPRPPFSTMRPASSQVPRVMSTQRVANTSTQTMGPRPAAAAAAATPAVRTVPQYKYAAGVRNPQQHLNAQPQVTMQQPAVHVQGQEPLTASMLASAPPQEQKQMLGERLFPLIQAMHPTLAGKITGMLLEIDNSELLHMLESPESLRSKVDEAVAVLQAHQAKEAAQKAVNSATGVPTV
Sequence of Potassium channel subfamily K member 9 (Q9NPC2 whole entry): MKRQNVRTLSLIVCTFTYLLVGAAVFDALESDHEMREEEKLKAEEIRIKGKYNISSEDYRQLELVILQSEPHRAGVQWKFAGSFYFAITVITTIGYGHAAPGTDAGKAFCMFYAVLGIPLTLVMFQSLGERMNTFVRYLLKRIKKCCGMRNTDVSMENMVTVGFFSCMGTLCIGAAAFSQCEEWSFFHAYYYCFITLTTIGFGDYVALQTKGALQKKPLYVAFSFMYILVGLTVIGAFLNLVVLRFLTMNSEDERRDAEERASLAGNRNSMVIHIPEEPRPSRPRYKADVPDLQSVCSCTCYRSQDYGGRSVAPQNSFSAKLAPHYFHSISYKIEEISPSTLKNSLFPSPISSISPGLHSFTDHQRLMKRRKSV
Sequence of Potassium channel subfamily K member 3 (O14649 whole entry): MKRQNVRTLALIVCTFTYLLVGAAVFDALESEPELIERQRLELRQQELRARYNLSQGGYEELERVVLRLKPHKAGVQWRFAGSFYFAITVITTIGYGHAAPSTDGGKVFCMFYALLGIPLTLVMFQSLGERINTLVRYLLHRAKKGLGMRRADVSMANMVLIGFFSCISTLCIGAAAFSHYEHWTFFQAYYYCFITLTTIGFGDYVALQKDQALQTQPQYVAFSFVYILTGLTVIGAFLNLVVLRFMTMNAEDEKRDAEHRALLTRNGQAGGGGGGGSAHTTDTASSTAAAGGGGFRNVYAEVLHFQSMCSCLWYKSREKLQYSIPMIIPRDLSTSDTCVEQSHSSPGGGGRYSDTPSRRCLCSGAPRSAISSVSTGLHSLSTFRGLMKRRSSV

Take `CCOc1ccccc1NC(=O)c1cccc(NC(=O)c2ccc(C)cc2)c1`: the IC50 was 14.7 µM (active) in [1] and 0.134 µM (active) in test [2].

`CCCCCCCCN1C(=O)[C@H](CC(=O)NCCC(C)C)C[C@@]2(C(=O)OCC)CCCC=C12`: in the test on A549, the AC50 is 21 µM (active).

As to `COC(=O)C1=C/C=C\CN(C(c2ccccc2)c2ccccc2)/C=C\1C(=O)OC`, the figures for the IC50 in test [3] and in test [5] were 5.7 µM (active) and > 20 µM (inactive), respectively. Also, the EC50 in test [4] is > 53 µM (inactive).

For the molecule `CC(C)(C)COC(=O)CSc1n[nH]c(=O)[nH]c1=O`, the AC50 in test [6] was > 76 µM (inactive).

On to `Cc1ccc(N2C(=O)[C@@H]3[C@H](C2=O)C2c4ccccc4C=CN2[C@@H]3C(=O)c2ccco2)cc1` (some centres undefined), for which the IC50 in [7] was > 66 µM (inactive); in test [8], > 66 µM (inactive); in test [9] it was 5.38 µM (active); in [10], 0.785 µM (active); at Caspase-3, 4.41 µM (active).

On to `CN(CC(=O)Nc1cccc(F)c1)C(=O)c1ccccc1OCC(=O)Nc1cccc(C(F)(F)F)c1`, for which the EC50 in test [11] is 0.775 µM (active); in [12], > 60 µM (not active); in test [13], > 29.9 µM (inactive); in [16] it was > 29.9 µM (inactive). For the same molecule, the IC50 in [14] was 6.89 µM (active); in test [15] it was 13.5 µM (inactive).

Take `Cn1c(-c2ccc(N)cc2)nc2ccccc21`: in test [17], the AC50 was 9.34 µM (active).
